This series deals with T1, OCT1 (SLC22A1) (Homo sapiens, UniProt O15245).
T1 sequence (O15245 whole entry): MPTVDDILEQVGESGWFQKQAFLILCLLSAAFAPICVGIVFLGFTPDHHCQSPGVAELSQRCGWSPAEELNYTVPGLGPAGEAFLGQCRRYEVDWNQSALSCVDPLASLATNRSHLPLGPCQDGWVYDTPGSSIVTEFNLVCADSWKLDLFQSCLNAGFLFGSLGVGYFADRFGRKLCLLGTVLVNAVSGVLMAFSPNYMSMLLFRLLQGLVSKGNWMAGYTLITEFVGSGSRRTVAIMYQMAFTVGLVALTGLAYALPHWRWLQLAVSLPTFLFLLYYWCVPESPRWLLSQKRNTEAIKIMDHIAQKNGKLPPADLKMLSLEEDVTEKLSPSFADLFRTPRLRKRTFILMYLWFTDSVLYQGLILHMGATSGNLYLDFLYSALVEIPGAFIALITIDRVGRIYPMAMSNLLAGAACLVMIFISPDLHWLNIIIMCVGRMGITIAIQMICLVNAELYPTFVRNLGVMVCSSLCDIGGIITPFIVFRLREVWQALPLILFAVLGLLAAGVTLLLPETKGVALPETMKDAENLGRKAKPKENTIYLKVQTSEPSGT
Kind of series: in vitro.

Where [1] appears, read: HEK293 cells that express human OCT1, probe 4-(4-(dimethylamino)styryl)-N-methylpyridinium.

As a reminder, the inhibition is the relative decrease from the control value, in per cent. Turning to `CC1=C(CC(=O)O)c2cc(F)ccc2/C1=C\c1ccc([S+](C)[O-])cc1` (stereo unspecified), the inhibition at 100 µM under setting [1] came to 27.1%.

As for `Oc1ncnc2[nH]ncc12` [ALLOPURINOL], the inhibition at 100 µM under setting [1] came to 7.7%.

As to `N[C@@H](Cc1ccc(O)c(O)c1)C(=O)O` [LEVODOPA], under setting [1], the inhibition at 100 µM was determined as 21.7%.

`C=C[C@H]1C[N@@]2CC[C@H]1C[C@@H]2[C@@H](O)c1ccnc2ccc(OC)cc12` [QUINIDINE]: the inhibition at 100 µM under setting [1] was found to be 62.9%.

Turning to `COc1ccc(Cc2nccc3cc(OC)c(OC)cc23)cc1OC` [PAPAVERINE], the inhibition at 100 µM under setting [1] was 66.3%.

As to `NCCS` [CYSTEAMINE], under setting [1], the inhibition at 100 µM was determined as 2.4%.

In the case of `CN1[C@@H]2CC[C@H]1C[C@@H](OC(=O)C(CO)c1ccccc1)C2` (stereo partly specified) [ATROPINE], the inhibition at 100 µM under setting [1] came to 76.5%.

In the case of `COc1cc2c(cc1O)CC[C@@H]1[C@@H]2CC[C@]2(C)[C@@H](O)CC[C@@H]12` [2-METHOXYESTRADIOL], the inhibition at 100 µM under setting [1] was 74.3%.

For the molecule `CCOC(=O)C1=C(C)NC(C)=C(C(=O)OC)C1c1cccc(Cl)c1Cl` (stereo unspecified) [FELODIPINE], the inhibition at 100 µM under setting [1] is 15.5%.

Turning to `COCCc1ccc(OCC(O)CNC(C)C)cc1` (stereo unspecified) [METOPROLOL], the inhibition at 100 µM under setting [1] was determined as 32.4%.

Turning to `CC(=O)Nc1ccc(O)cc1` [ACETAMINOPHEN], the inhibition at 100 µM under setting [1] is -9.2%.

In the case of `CC/C(=C(\c1ccccc1)c1ccc(OCCN(C)C)cc1)c1ccccc1` [TAMOXIFEN], the inhibition at 100 µM under setting [1] was found to be 72.1%.

Take `CCN(CC)CC#CCOC(=O)C(O)(c1ccccc1)C1CCCCC1` (stereo unspecified) [OXYBUTYNIN]: the inhibition at 100 µM under setting [1] was found to be 75.7%.

Turning to `Cc1ccccc1C(OCCN(C)C)c1ccccc1` (stereo unspecified) [ORPHENADRINE], the inhibition at 100 µM under setting [1] came to 77.6%.

Consider `CCOC(=O)N1CCC(=C2c3ccc(Cl)cc3CCc3cccnc32)CC1` [LORATADINE], for which, under setting [1], the inhibition at 100 µM was found to be 51.8%.

On to `NS(=O)(=O)c1cc2c(cc1Cl)NCNS2(=O)=O` [HYDROCHLOROTHIAZIDE], for which, under setting [1], the inhibition at 100 µM is -9.8%.

Regarding `CC(C)NCC(O)c1cc(O)cc(O)c1` (stereo unspecified) [METAPROTERENOL], the inhibition at 100 µM under setting [1] was 12.6%.

`CCS(=O)(=O)CCn1c([N+](=O)[O-])cnc1C` [TINIDAZOLE]: the inhibition at 100 µM under setting [1] came to 14.2%.

As for `COc1cc([C@@H]2c3cc4c(cc3[C@@H](O[C@@H]3O[C@@H]5CO[C@@H](C)O[C@H]5[C@H](O)[C@H]3O)[C@H]3COC(=O)[C@H]23)OCO4)cc(OC)c1O` [ETOPOSIDE], the inhibition at 100 µM under setting [1] was 7.5%.

`C[C@]12C[C@H](O)[C@H]3[C@@H](CCC4=CC(=O)CC[C@@]43C)[C@@H]1CC[C@@H]2C(=O)CO` [CORTICOSTERONE]: under setting [1], the inhibition at 100 µM is 33.5%.

With `O=C(O)COCCN1CCN(C(c2ccccc2)c2ccc(Cl)cc2)CC1` (stereo unspecified) [CETIRIZINE], the inhibition at 100 µM under setting [1] was -4.8%.

In the case of `Cn1cc[nH]c1=S` [METHIMAZOLE], the inhibition at 100 µM under setting [1] was found to be 11.6%.

Consider `N=C(N)NCCCCN` [AGMATINE], for which, under setting [1], the inhibition at 100 µM came out at 2.1%.

In the case of `CC(C)C(=O)Nc1ccc([N+](=O)[O-])c(C(F)(F)F)c1` [FLUTAMIDE], under setting [1], the inhibition at 100 µM was determined as 34.1%.

As to `OC(CCN1CCCCC1)(c1ccccc1)C1CCCCC1` (stereo unspecified) [TRIHEXYPHENIDYL], where the note is “hek293”, the inhibition at 100 µM was 79.4%.

Consider `NC(N)=Nc1nc(CSCCC(N)=NS(N)(=O)=O)cs1` [FAMOTIDINE], for which, under “hek293”, the inhibition at 100 µM was found to be 13.9%.

Turning to `N[C@H]1C(O)O[C@H](CO)[C@@H](O)[C@@H]1O` (stereo partly specified) [GLUCOSAMINE], under setting [1], the inhibition at 100 µM is 13.9%.

For the molecule `NC(N)=NCCCCN=C(N)N` [ARCAINE], the inhibition at 100 µM under setting [1] turned out to be 4.5%.

With `Cn1cnc([N+](=O)[O-])c1Sc1ncnc2nc[nH]c12` [AZATHIOPRINE], the inhibition at 100 µM (hek293) amounted to 4.2%.

On to `CC(=O)[C@H]1CC[C@H]2[C@@H]3CCC4=CC(=O)CC[C@]4(C)[C@H]3CC[C@]12C` [PROGESTERONE], for which, where the note is “hek293”, the inhibition at 100 µM stood at 55.7%.

Take `C[C@]12CC[C@@H]3c4ccc(O)cc4CC[C@H]3[C@@H]1CC[C@@H]2O` [ESTRADIOL]: under setting [1], the inhibition at 100 µM was 83.5%.

`CNC[C@H](O)c1ccc(O)c(O)c1` [EPINEPHRINE]: the inhibition at 100 µM (hek293) was determined as 29.1%.

With `CC(=O)O[C@H]1C[C@@H]2CC[C@@H]3[C@H](CC[C@@]4(C)[C@H]3C[C@H]([N+]3(C)CCCCC3)[C@@H]4OC(C)=O)[C@@]2(C)C[C@@H]1[N+]1(C)CCCCC1` [PANCURONIUM], the inhibition at 100 µM under setting [1] is -10.3%.

Turning to `O=C1NC(=O)C(c2ccccc2)(c2ccccc2)N1` [PHENYTOIN], the inhibition at 100 µM under setting [1] is -2%.

As for `Cc1c(C)c2c(c(C)c1O)CCC(C)(COc1ccc(CC3SC(=O)NC3=O)cc1)O2` (stereo unspecified) [TROGLITAZONE], the inhibition at 100 µM under setting [1] amounted to 48.2%.

For `CO[C@H]1/C=C/O[C@@]2(C)Oc3c(C)c(O)c4c(O)c(c(/C=N/N5CCN(C)CC5)c(O)c4c3C2=O)NC(=O)/C(C)=C\C=C\[C@H](C)[C@H](O)[C@@H](C)[C@@H](O)[C@@H](C)[C@H](OC(C)=O)[C@@H]1C` [RIFAMPIN], the inhibition at 100 µM under setting [1] came to 26.2%.

Take `CC(C)Cc1ccc(C(C)C(=O)O)cc1` (stereo unspecified) [IBUPROFEN]: the inhibition at 100 µM under setting [1] turned out to be 6.3%.

For `CC[C@@H]1C(=O)OC[C@@H]1Cc1cncn1C` [PILOCARPINE], the inhibition at 100 µM under setting [1] worked out at 17%.

For the molecule `C[N+](C)(C)CCO` [CHOLINE], the inhibition at 100 µM (hek293) was determined as 21.3%.

On to `CN1CCN2c3ccccc3Cc3ccccc3C2C1` (stereo unspecified) [MIANSERIN], for which the inhibition at 100 µM under setting [1] is 48.4%.

For `NCC1(CC(=O)O)CCCCC1` [GABAPENTIN], the inhibition at 100 µM under setting [1] came to 15.1%.

Take `O=C1CC[C@@]2(O)[C@H]3Cc4ccc(O)c5c4[C@@]2(CCN3CC2CC2)[C@H]1O5` [NALTREXONE]: under setting [1], the inhibition at 100 µM amounted to 40.3%.

As for `CC1(C)S[C@@H]2[C@H](NC(=O)[C@H](N)c3ccccc3)C(=O)N2[C@H]1C(=O)O` [AMPICILLIN], the inhibition at 100 µM under setting [1] was 20.3%.

As to `CC(=O)S[C@@H]1CC2=CC(=O)CC[C@]2(C)[C@H]2CC[C@@]3(C)[C@@H](CC[C@@]34CCC(=O)O4)[C@H]12` [SPIRONOLACTONE], the inhibition at 100 µM under setting [1] stood at 87.9%.

Take `CC[C@H]1OC(=O)[C@H](C)[C@@H](O[C@H]2C[C@@](C)(OC)[C@@H](O)[C@H](C)O2)[C@H](C)[C@@H](O[C@@H]2O[C@H](C)C[C@H](N(C)C)[C@H]2O)[C@](C)(O)C[C@@H](C)C(=O)[C@H](C)[C@@H](O)[C@]1(C)O` [ERYTHROMYCIN]: the inhibition at 100 µM under setting [1] was found to be 14%.

As to `COc1ccc(CCN(C)CCCC(C#N)(c2cc(OC)c(OC)c(OC)c2)C(C)C)cc1OC` (racemic) [METHOXYVERAPAMIL], the inhibition at 100 µM under setting [1] was found to be 78.1%.

As to `CC(C)N(CCC(C(N)=O)(c1ccccc1)c1ccccn1)C(C)C` (stereo unspecified) [DISOPYRAMIDE], the inhibition at 100 µM (hek293) turned out to be 68.8%.

`CN1CCC[C@H]1c1cccnc1` [NICOTINE]: the inhibition at 100 µM (hek293) is -3.7%.

For the molecule `CCCC(CCC)C(=O)O` [VALPROIC ACID], under setting [1], the inhibition at 100 µM worked out at 19.6%.

As for `N=C(N)c1ccc(CNC(=O)[C@@H]2CCN2C(=O)[C@H](NCC(=O)O)C2CCCCC2)cc1`, under setting [1], the inhibition at 100 µM is -0.2%.

As to `CC(=O)N[C@@H](CS)C(=O)O` [ACETYLCYSTEINE], the inhibition at 100 µM under setting [1] came out at 15.5%.

`CN(C)C(=O)Oc1cccc([N+](C)(C)C)c1` [NEOSTIGMINE BROMIDE]: the inhibition at 100 µM under setting [1] came to 19.4%.

On to `NCCCC(N)(C(=O)O)C(F)F` (stereo unspecified) [EFLORNITHINE], for which, under setting [1], the inhibition at 100 µM was 5.5%.

On to `Cn1c(=O)c2c(ncn2C)n(C)c1=O` [CAFFEINE], for which the inhibition at 100 µM under setting [1] is -1.4%.

`CC(C)c1cccc(C(C)C)c1O` [PROPOFOL]: the inhibition at 100 µM (hek293) was -17.9%.

As to `Clc1ccccc1C(c1ccccc1)(c1ccccc1)n1ccnc1` [CLOTRIMAZOLE], the inhibition at 100 µM under setting [1] stood at 69.3%.

The record behind these values is ChEMBL document CHEMBL1140113, “Structural requirements for drug inhibition of the liver specific human organic cation transport protein 1” (J Med Chem, 2008).
